Molecular target: T1, SCD (Rattus norvegicus, UniProt P07308)
T1 construct: an enzyme reaction using rat liver microsome (20 μg) was performed for 15 min; from tissue; host or cells: rat liver microsome fraction
T1 sequence (P07308 1-358): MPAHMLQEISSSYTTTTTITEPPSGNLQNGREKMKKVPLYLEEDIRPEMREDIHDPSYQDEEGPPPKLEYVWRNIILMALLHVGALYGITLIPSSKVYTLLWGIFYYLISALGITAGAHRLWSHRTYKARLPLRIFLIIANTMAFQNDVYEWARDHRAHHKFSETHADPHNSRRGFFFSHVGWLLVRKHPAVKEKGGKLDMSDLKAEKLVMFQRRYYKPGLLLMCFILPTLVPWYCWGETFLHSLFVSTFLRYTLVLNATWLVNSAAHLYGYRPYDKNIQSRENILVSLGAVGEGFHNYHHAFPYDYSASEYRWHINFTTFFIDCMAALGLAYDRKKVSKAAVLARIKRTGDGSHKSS
Test: Measurement of SCD inhibitory activity using microsome (TLC detection system)
Format: biochemical
Settings: rat liver microsome (20 μg), 15 min, [14C] stearoyl-CoA, test compound (10 mM) diluted to 3/1000 with 3× buffer, 10 μL in 30 μL reaction; for inhibition at 10 µM: read-out: SCD activity inhibitory rate (%)
Description: (Test Method: Measurement of SCD Inhibitory Activity Using Microsome (TLC Detection System))
A test compound (10 mM) diluted with DMSO in advance was secondarily diluted to 3/1000 with 3× buffer (300 mmol/L NaH2PO4 [pH 7.4], 450 mM KCl, 30 mM NaF, 9 mM MgCl2, 4.5 mM glutathione [reduced form], 0.3% BSA [fatty acid free, SIGMA]). The test compound (10 μL) diluted with the assay buffer was dispensed to a PP 96-deep well block, and a microsome fraction (10 μL) diluted with a microsome buffer was added thereto. The enzyme reaction was started by the addition of 10 μL of [^14C] stearoyl-CoA (American Radiolabeled Chemicals [ARC], Inc.) diluted to 10 μCi/mL with 9 mmol/L NADH. For evaluation of the compound, an enzyme reaction using rat liver microsome (20 μg) was performed for 15 min. The reaction was quenched by the addition of 10 μL of 2.5N NaOH, a plate seal was applied, and the reaction mixture was incubated overnight in a dry heater set to 65° C. to allow saponification. Solvent extraction of fatty acid was based on the Bligh&Dyer method (1). Formic acid:methanol:chloroform (1:6:3) (200 μL) was added, the state of single layer was maintained, the mixture was sufficiently stirred, and pure water (120 μL) was added to allow separation into two layers. The lower chloroform layer (10 μL) was spotted on reversed-phase TLC plate (RP-18, 1154230001, Merck Japan, Ltd.) and developed with acetonitrile:pure water:acetic:acid (95:4.5:0.5). The TLC plate was dried and transferred onto an Imaging Plate (Fuji Photo Film Co., Ltd.) for not less than 5 hr. For detection, BAS-5000 (Fuji Photo Film Co., Ltd) was used and the obtained spot images were converted to numerical values using Multi Gauge Ver2.3 (Fuji Photo Film Co., Ltd), based on which the SCD activity inhibitory rate (%) was determined.

| inhibition at 10 µM [%] | SCD activity inhibitory rate (%) | Structure (SMILES) |
| --- | --- | --- |
| 99 | – | Cc1nsc(-c2ccc(N3CCC4(C=Cc5ccccc54)CC3)nn2)n1 [Example 2, 1′-[6-(3-methyl-1,2,4-thiadiazol-5-yl)pyridazin-3-yl]spiro[indene-1,4′-piperidine]] |
| 97 | – | Cc1nsc(-c2ccc(N3CCC4(CC3)Cc3ccccc3O4)nn2)n1 [Example 4, 1′-[6-(3-methyl-1,2,4-thiadiazol-5-yl)pyridazin-3-yl]-3H-spiro[1-benzofuran-2,4′-piperidine]] |
| 100 | – | Cc1nsc(-c2ccc(N3CCC4(CC3)CC(=O)c3ccccc3O4)nn2)n1 [Example 5, 1′-[6-(3-methyl-1,2,4-thiadiazol-5-yl)pyridazin-3-yl]spiro[chromene-2,4′-piperidin]-4(3H)-one] |
| 95 | – | Cc1nsc(-c2ccc(N3CCC4(CC3)NC(=O)c3ccccc3N4)nn2)n1 [Example 6, 1-[6-(3-methyl-1,2,4-thiadiazol-5-yl)pyridazin-3-yl]-1′H-spiro[piperidine-4,2′-quinazolin]-4′(3′H)-one] |
| 93 | – | C1=CC2(CCN(c3ccc(-c4ncns4)nn3)CC2)c2ccccc21 [Example 11, 1′-[6-(1,2,4-thiadiazol-5-yl)pyridazin-3-yl]spiro[indene-1,4′-piperidine]] |
| 100 | – | Cc1nsc(-c2ccc(N3CCC4(CC3)COc3ccccc34)nn2)n1 [Example 17, 1′-[6-(3-methyl-1,2,4-thiadiazol-5-yl)pyridazin-3-yl]spiro[1-benzofuran-3,4′-piperidine]] |
| 98 | – | Cc1nsc(-c2ccc(N3CCC4(C=Cc5ccccc5O4)CC3)nn2)n1 [Example 20, 1′-[6-(3-methyl-1,2,4-thiadiazol-5-yl)pyridazin-3-yl]spiro[chromene-2,4′-piperidine]] |
| 99 | – | Cc1nsc(-c2ccc(N3CCC4(CC3)CN(c3cccc(F)c3)C(=O)O4)nn2)n1 [Example 29, 3-(3-fluorophenyl)-8-[6-(3-methyl-1,2,4-thiadiazol-5-yl)pyridazin-3-yl]-1-oxa-3,8-diazaspiro[4.5]decan-2-one] |
| 92 | – | Cc1nsc(-c2ccc(N3CCC4(CC3)NC(=O)c3ccccc3O4)nn2)n1 [Example 31, 1′-[6-(3-methyl-1,2,4-thiadiazol-5-yl)pyridazin-3-yl]spiro[1,3-benzoxazine-2,4′-piperidin]-4(3H)-one] |
| 94 | – | Cc1nsc(-c2ccc(N3CCC4(CC3)CN(c3ccccc3)C(=O)CO4)nn2)n1 [Example 32, 9-[6-(3-methyl-1,2,4-thiadiazol-5-yl)pyridazin-3-yl]-4-phenyl-1-oxa-4,9-diazaspiro[5.5]undecan-3-one] |
| 100 | – | Cc1noc(-c2ccc(N3CCC4(C3)OCc3ccccc34)nn2)n1 (stereo not drawn) [Example 43, 1′-[6-(3-methyl-1,2,4-oxadiazol-5-yl)pyridazin-3-yl]-3H-spiro[2-benzofuran-1,3′-pyrrolidine]] |
| 93 | – | Cc1noc(-c2ccc(N3CCC4(CC3)CN(c3ccc(F)cc3)C(=O)O4)nn2)n1 [Example 47, 3-(4-fluorophenyl)-8-[6-(3-methyl-1,2,4-oxadiazol-5-yl)pyridazin-3-yl]-1-oxa-3,8-diazaspiro[4.5]decan-2-one] |
| 99 | – | Cc1nsc(-c2ccc(N3CCC4(COc5ccccc54)C3)nn2)n1 (stereo not drawn) [Example 50, 1′-[6-(3-methyl-1,2,4-thiadiazol-5-yl)pyridazin-3-yl]spiro[1-benzofuran-3,3′-pyrrolidine]] |
| 97 | – | Cc1noc(-c2ccc(N3CCC4(COc5ccccc54)C3)nn2)n1 (stereo not drawn) [Example 51, 1′-[6-(3-methyl-1,2,4-oxadiazol-5-yl)pyridazin-3-yl]spiro[1-benzofuran-3,3′-pyrrolidine]] |
| 99 | – | O=C(CNC(=O)c1ccc(N2CCC3(C=Cc4ccccc43)CC2)nn1)c1ccccc1 [Example 55, N-(2-oxo-2-phenylethyl)-6-(1′H-spiro[indene-1,4′-piperidin]-1′-yl)pyridazine-3-carboxamide] |
| 98 | – | O=C(NCC(O)c1ccccc1)c1ccc(N2CCC3(C=Cc4ccccc43)CC2)nn1 (stereo not drawn) [Example 60, N-(2-hydroxy-2-phenylethyl)-6-(1′H-spiro[indene-1,4′-piperidin]-1′-yl)pyridazine-3-carboxamide] |
| 98 | – | O=C(NCCc1cccnc1)c1ccc(N2CCC3(C=Cc4ccccc43)CC2)nn1 [Example 74, N-(2-(pyridin-3-yl)ethyl)-6-(1′H-spiro[indene-1,4′-piperidin]-1′-yl)pyridazine-3-carboxamide] |
| 100 | – | O=C(NCC(O)Cc1ccccc1)c1ccc(N2CCC3(C=Cc4ccccc43)CC2)nn1 (stereo not drawn) [Example 86, N-(2-hydroxy-3-phenylpropyl)-6-(1′H-spiro[indene-1,4′-piperidin]-1′-yl)pyridazine-3-carboxamide] |
| 98 | – | O=C(N[C@H]1C[C@@H]1c1ccccc1)c1ccc(N2CCC3(C=Cc4ccccc43)CC2)nn1 [Example 126, N-[(1S,2R)-2-phenylcyclopropyl]-6-(1′H-spiro[indene-1,4′-piperidin]-1′-yl)pyridazine-3-carboxamide] |
| 100 | – | OCc1noc(-c2ccc(N3CCC4(CC3)COc3ccccc34)nn2)n1 [Example 143, {5-[6-(1′H-spiro[1-benzofuran-3,4′-piperidin]-1′-yl)pyridazin-3-yl]-1,2,4-oxadiazol-3-yl}methanol] |
| 97 | – | CC1CSC(c2ccc(N3CCC4(CC3)COc3ccccc34)nn2)=N1 (stereo not drawn) [Example 146, 1′-[6-(4-methyl-4,5-dihydro-1,3-thiazol-2-yl)pyridazin-3-yl]spiro[1-benzofuran-3,4′-piperidine]] |
| 100 | – | OCc1nc(-c2ccc(N3CCC4(CC3)COc3ccccc34)nn2)no1 [Example 148, {3-[6-(1′H-spiro[1-benzofuran-3,4′-piperidin]-1′-yl)pyridazin-3-yl]-1,2,4-oxadiazol-5-yl}methanol] |
| 99 | – | Cc1nc(-c2ccc(N3CCC4(C3)OCc3ccccc34)nn2)no1 (stereo not drawn) [Example 150, 1′-[6-(5-methyl-1,2,4-oxadiazol-3-yl)pyridazin-3-yl]-3H-spiro[2-benzofuran-1,3′-pyrrolidine]] |
| 100 | – | OCc1noc(-c2ccc(N3CCC4(C3)OCc3ccccc34)nn2)n1 (stereo not drawn) [Example 156, {5-[6-(1′H,3H-spiro[2-benzofuran-1,3′-pyrrolidin]-1′-yl)pyridazin-3-yl]-1,2,4-oxadiazol-3-yl}methanol] |
| 100 | – | OCc1noc(-c2ccc(N3CCC4(COc5ccccc54)C3)nn2)n1 (stereo not drawn) [Example 157, {5-[6-(1′H-spiro[1-benzofuran-3,3′-pyrrolidin]-1′-yl)pyridazin-3-yl]-1,2,4-oxadiazol-3-yl}methanol] |
| 99 | – | Cc1noc(-c2ccc(N3CCC4(C3)C(=O)N(C)c3ccccc34)nn2)n1 (stereo not drawn) [Example 159, 1-methyl-1′-[6-(3-methyl-1,2,4-oxadiazol-5-yl)pyridazin-3-yl]spiro[indole-3,3′-pyrrolidin]-2(1H)-one] |
| 100 | – | Cc1noc(-c2ccc(N3CCC4(Cc5ccccc5O4)C3)nn2)n1 (stereo not drawn) [Example 170, 1′-[6-(3-methyl-1,2,4-oxadiazol-5-yl)pyridazin-3-yl]-3H-spiro[1-benzofuran-2,3′-pyrrolidine]] |
| – | 99 | Cc1noc(-c2ccc(N3CCC4(C3)OCc3ccccc34)nn2)n1 (stereo not drawn) [Example 177, 1′-[6-(3-methyl-1,2,4-oxadiazol-5-yl)pyridazin-3-yl]-3H-spiro[2-benzofuran-1,3′-pyrrolidine]] |
| – | 97 | Cc1noc(-c2ccc(N3CCC4(C3)OCc3ccccc34)nn2)n1 (stereo not drawn) [Example 178, 1′-[6-(3-methyl-1,2,4-oxadiazol-5-yl)pyridazin-3-yl]-3H-spiro[2-benzofuran-1,3′-pyrrolidine]] |
| – | 96 | Cc1noc(-c2ccc(N3CCC4(COc5ccccc54)C3)nn2)n1 (stereo not drawn) [Example 179 (long retention time), 1′-[6-(3-methyl-1,2,4-oxadiazol-5-yl)pyridazin-3-yl]spiro[1-benzofuran-3,3′-pyrrolidine]] |
